Reference: patent US20180002288A1, “USE OF PICOLINAMIDES AS FUNGICIDES” (DOW AGROSCIENCES LLC, priority 2014, published 2018)
Read-outs that look alike come from different tables or passages of the source.

How the values were obtained:
Zymoseptoria tritici = assay: Leaf Blotch of Wheat fungicidal activity (SEPTTR); assay type: in vivo; conditions: for pest or weed control at 100 ppm: wheat, high volume; for pest or weed control at 121.5 g/ha: Low Volume Cereal Activity at 121.5 g/Ha
Experimental: (§1) All fungicides were evaluated using the aforementioned method for their activity vs. all target diseases, unless stated otherwise. Wheat leaf blotch and brown rust activity were also evaluated using track spray applications, in which case the fungicides were formulated as EC formulations, containing 0.1% Trycol 5941 in the spray solutions. Wheat plants (variety Yuma) were grown from seed in a greenhouse in 50% mineral soil/50% soil-less Metro mix until the first leaf was fully emerged, with 7-10 seedlings per pot. These plants were inoculated with an aqueous spore suspension of Zymoseptoria tritici either prior to or after fungicide treatments. After inoculation the plants were kept in 100% relative humidity (one day in a dark dew chamber followed by two to three days in a lighted dew chamber at 20° C.) to permit spores to germinate and infect the leaf. The plants were then transferred to a greenhouse set at 20° C. for disease to develop. When disease symptoms were fully expressed on the 1st leaves of untreated plants, infection levels were assessed on a scale of 0 to 100 percent disease severity. Percent disease control was calculated using the ratio of disease severity on treated plants relative to untreated plants.

Puccinia triticina = assay: Wheat Brown Rust fungicidal activity (PUCCRT); assay type: in vivo; conditions: for pest or weed control at 100 ppm: wheat, high volume; for pest or weed control at 121.5 g/ha: Low Volume Cereal Activity at 121.5 g/Ha
Experimental: as §1, with “plants. Wheat plants (variety Yuma) were grown from seed in a greenhouse in 50% mineral soil/50% soil-less Metro mix until the first leaf was fully emerged, with 7-10 seedlings per pot. These plants were inoculated with an aqueous spore suspension of Puccinia triticina either prior to or after fungicide treatments. […] The plants were then transferred to a greenhouse set at 24° C. for disease to develop. Fungicide formulation, application and disease assessment followed the procedures as described in the Example A.” for “plants.”

[1] = 24 h, 1 Day Protectant, read-out: SEPTTR 1DP % Control rating
[2] = 72 h, 3 Day Curative, read-out: SEPTTR 3DC % Control rating
[3] = 24 h, 1 Day Protectant, read-out: PUCCRT 1DP % Control rating
[4] = 72 h, 3 Day Curative, read-out: PUCCRT 3DC % Control rating
[5] = 24 h, 1 Day Protectant, read-out: SEPTTR 1DP (Wheat Leaf Blotch, 1 Day Protectant)
[6] = 72 h, 3 Day Curative, read-out: SEPTTR 3DC (Wheat Leaf Blotch, 3 Day Curative)
[7] = 24 h, 1 Day Protectant, read-out: PUCCRT 1DP (Wheat Brown Rust, 1 Day Protectant)
[8] = 72 h, 3 Day Curative, read-out: PUCCRT 3DC (Wheat Brown Rust, 3 Day Curative)

Compound	pest or weed control at 100 ppm (Zymoseptoria tritici; [1]) [%]	pest or weed control at 100 ppm (Zymoseptoria tritici; [2]) [%]	pest or weed control at 100 ppm (Puccinia triticina; [3]) [%]	pest or weed control at 100 ppm (Puccinia triticina; [4]) [%]	pest or weed control at 121.5 g/ha (Zymoseptoria tritici; [5]) [%]	pest or weed control at 121.5 g/ha (Zymoseptoria tritici; [6]) [%]	pest or weed control at 121.5 g/ha (Puccinia triticina; [7]) [%]	pest or weed control at 121.5 g/ha (Puccinia triticina; [8]) [%]
COc1cc(C)ccc1[C@@H](Oc1ccc(C)cc1)[C@H](C)OC(=O)[C@H](C)NC(=O)c1nccc(OC)c1O [Example 177]	> 80	> 80	< 80	< 0				
CC[C@H](NC(=O)c1nccc(OC)c1OC(C)=O)C(=O)O[C@@H](C)[C@H](Oc1cc(F)cc(Cl)c1)c1ccccc1 [Example 209]					> 80	> 80	> 80	< 80
COc1ccnc(C(=O)N[C@@H](C)C(=O)O[C@@H](C)[C@H](OCC2CC2)c2ccc(-c3ccccc3)cc2)c1OCOC(C)=O [Example 234]					> 80	> 80	> 80	< 80
COc1ccnc(C(=O)N[C@@H](C)C(=O)O[C@@H](C)[C@@H](Oc2ccc(Cl)cc2Cl)c2ccccc2)c1OC(C)=O [Example 214]					> 80	> 80	> 80	< 80
COc1ccnc(C(=O)N[C@@H](C)C(=O)O[C@@H](C)[C@H](Oc2ccccc2)c2ccccc2)c1O [Example 114]	> 80	> 80	> 80	> 80				
COc1ccnc(C(=O)N[C@@H](C)C(=O)O[C@@H](C)[C@@H](OC)c2ccccc2)c1O [Example 140]	< 0	< 80	< 80	> 80				
C=CCOc1cc(F)ccc1[C@@H](Oc1ccccc1)[C@H](C)OC(=O)[C@H](C)NC(=O)c1nccc(OC)c1O [Example 167]	> 80	> 80	> 80	> 80				
COc1ccnc(C(=O)N[C@@H](C)C(=O)O[C@@H](C)[C@H](Oc2ccccc2)c2ccc3ccccc3c2)c1O [Example 166]	> 80	> 80	> 80	> 80				
COc1ccnc(C(=O)N[C@@H](C)C(=O)O[C@@H](C)[C@@H](Oc2ccccc2)c2cccs2)c1OC(C)=O [Example 210]					< 80	< 80	< 80	< 80
COc1ccnc(C(=O)N[C@@H](C)C(=O)O[C@@H](C)[C@H](Oc2ccccc2)c2cccc3ccccc23)c1O [Example 165]	> 80	> 80	> 80	> 80				
COc1ccnc(C(=O)N[C@@H](C)C(=O)O[C@@H](C)[C@H](Oc2ccc(C(F)(F)F)cc2)c2ccccc2)c1O [Example 125]	< 80	< 80	< 80	< 0				
COc1ccnc(C(=O)N[C@@H](C)C(=O)O[C@@H](C)[C@H](OC)c2ccccc2)c1OC(C)=O [Example 231]					< 0	> 80	< 0	> 80
COc1ccnc(C(=O)N[C@@H](C)C(=O)O[C@@H](C)[C@H](Oc2ccc(C)cc2)c2ccccc2)c1OCOC(C)=O [Example 248]					> 80	> 80	> 80	> 80
